What was measured:
[1] = test system: isolated feline renal, femoral, mesenteric and carotid arterial rings; assay: isolated feline arterial rings (with endothelium) precontracted with phenylephrine
Experimental: Additional studies were performed in vitro to determine the contribution of changes in regional hemodynamics in the systemic vasodilator response to nociceptin.

[2] = test system: forskolin-stimulated cAMP production; settings: literature (4,5); cited from earlier work
[3] = test system: conscious Sprague-Dawley rats; assay: intracerebroventricular (i.c.v.) injection in conscious rats: cardiovascular and renal responses; assay type: in vivo, rat
Experimental: Abbreviations are HR, heart rate; MAP, mean arterial pressure; V, urine flow rate; and UNa V, urinary sodium excretion. Statistical significance within each group was determined by a repeated measures analysis of variance followed by a Bonferroni multiple comparisons test; asterisks (a, b, or c) denote a significant change (p<0.05) from control within each group.
(§1) Anesthetized male Sprague-Dawley rats (275-300 g, Sprague-Dawley, Inc., Indianapolis, Ind.) were implanted with chronic arterial and venous cannulas and a bladder catheter in accordance with previously published methods (10, 12). For experiments in which drugs were administered i.c.v., a stainless steel cannula was stereotaxically implanted into the right lateral ventricle of rats under anesthesia at least 5-7 days prior to experimentation (11). On the morning of the study rats were placed in a rat holder which permits forward and backward movement and allows for collection of urine from the bladder catheter. Conscious rats were then infused i.v. with isotonic saline (50 μl/min) for the duration of the experiment. The arterial cannulae was then flushed and attached to a pressure transducer (Statham P23Db) and the urinary bladder catheter led to a collection beaker. After equilibration and stabilization of urine flow rate and urinary sodium excretion (approximately 2-3 hours) the experimental protocol described in each figure legend commenced. Intravenous and i.c.v. stock solutions of nociceptin and nor-binaltorphimine were prepared fresh in isotonic saline vehicle. […] Animal experimentation and care procedures were in accordance with the National Institutes of Health guidelines for the care and use of animals.

[4] = test system: systemic vascular bed of the anesthetized rat; assay: systemic vasodepressor response to bolus i.v. nociceptin in the anesthetized rat; assay type: in vivo
Experimental: N=number of animals. *p<0.05 when compared to corresponding control value.
Male rats (250-300 g) were anesthetized with pentobarbital sodium (30 mg/kg i.p.). Catheters were placed into a femoral artery and femoral vein for measurement of systemic […] blood pressure and administration of drugs, respectively. Cardiac output was calculated by using Columbus 2F thermodilution catheter placed fluoroscopically in the ascending aortic arch assess changes in temperature following a thermal reference injection of saline (0.2 ml) at room temperature into the right atrium via a jugular venous catheter. Changes in systemic arterial pressure were measured using a Gould P23Id pressure transducer and recorded on a Grass Model 7A recorder. Cardiac output was determined using a Columbus Cardiomax thermodilution cardiac output computer.
Values are means +/-SE; N=6. *p,0.05 compared with corresponding control (paired t test).

[5] = test system: conscious Sprague-Dawley rats; assay: intravenous infusion of nociceptin in conscious chronically instrumented rats: cardiovascular and renal responses; assay type: in vivo, rat; settings: i.v. infusion 20 μg/kg/min
Experimental: as §1
Statistical significance was determined by a repeated measure analysis of variance followed by a Bonferroni multiple comparisons test; asterisks denote a significant difference (p<0.05) from the respective group control.

rat kidney = assay: site of infusion (right renal artery, suprarenal and infrarenal aorta, intravenous) and urine flow rate; assay type: in vivo; settings: direct right renal arterial administration
[6] = test system: isolated rat aortic vascular rings; assay: vasorelaxant response of isolated rat aortic rings in vitro precontracted with U46619
Experimental: Aortic rings were precontracted with U46619, a thromboxane A2 mimic.
Rat aortic rings in vitro (with intact endothelium) were precontracted with […], a thromboxane A2 mimic.
Male rats (250-350g) were anesthetized with pentobarbital sodium (30 mg/Kg i.p). The rat lungs were quickly removed and immersed in cold (4° C.) Krebs-Henseleit (K-H) solution (composition mM: NaCl 118, KCl 4.7, CaCl2 2.5, KH2 PO4 1.2, NaHCO3 25, MgSO4 1.2, and dextrose 10). Pulmonary arteries (PA) were isolated and excess fat and connective tissue were removed. Vessels were cut into rings of about 2.5-3 mm in length and were mounted in organ baths containing 5 ml K-H solution. Two stainless steel hooks were inserted into the lumen of the pulmonary artery (PA), one was fixed while the other was connected to a transducer. The tissue bath solution was maintained at 37° C. and bubbled with a 95% O2 -5%CO2 mixture. The pulmonary arteries were equilibrated for 90 min with three changes of K-H solution and an optimal tension of 1 gr. applied. Contractions were measured isometrically with a force displacement transducer (FTO3, Grass, USA) and were recorded on a Grass model 7 polygraph. The contractile ability of each ring was then examined by exposure to 60 mM KCl, then washed and allowed to dilate to baseline tension. […] The integrity of the endothelium was determined by obtaining a maximal vasorelaxant response to ACh. […]

conscious rats = assay: lower-dose i.v. infusion of nociceptin (50 and 166 nanog/Kg/min) in conscious rats, renal function; assay type: in vivo, rat
From the text: These marked increases in urine flow rate occurred at doses approximately 120 fold lower than previously reported by Kapusta et al. (17). In order to confirm these more recent and complete studies of the present invention, nociceptin was obtained from three commercially available sources, Phoenix Pharmaceutical, Bachem Chemical and Peninsula Laboratories. […] Nociceptin from each of the sources above was studied at a single infusion rate in each group of six rats. […] These increases in urine flow were accompanied by a decrease in the excretion of urinary sodium (UNA V) as reported earlier (17).

[7] = 0.3 ug, i.v. bolus, mean +/- SE, N=6
[8] = 1.0 ug, i.v. bolus, mean +/- SE, N=6
[9] = 3.0 ug, i.v. bolus, mean +/- SE, N=6
[10] = i.v. infusion 50 and 166 nanog/Kg/min

CC(C)C[C@H](NC(=O)[C@H](CCCCN)NC(=O)[C@H](CCCN=C(N)N)NC(=O)[C@H](C)NC(=O)[C@H](CO)NC(=O)[C@H](CCCCN)NC(=O)[C@H](CCCN=C(N)N)NC(=O)[C@H](C)NC(=O)CNC(=O)[C@@H](NC(=O)[C@H](Cc1ccccc1)NC(=O)CNC(=O)CNC(=O)[C@@H](N)Cc1ccccc1)[C@@H](C)O)C(=O)N[C@@H](C)C(=O)N[C@@H](CC(N)=O)C(=O)N[C@@H](CCC(N)=O)C(=O)O [nociceptin]
relaxation of arterial rings [1]: ability to relax | forskolin-stimulated cAMP production [2]: inhibits forskolin-stimulated cAMP production | tachyphylaxis to the cardiovascular and renal responses ([3]; consecutive i.c.v. injection of the same dose (1, 10 or 30 μg)): did not develop | time of peak diuresis ([3]; i.c.v. 1 μg): 30 min | time of peak diuresis ([3]; i.c.v. 10 μg): 40 min | renal response (urine flow rate and urinary sodium excretion) ([3]; i.c.v. 10 μg, naive conscious rats): concurrent diuretic and antinatriuretic response | onset of diuresis compared with dynorphin A ([3]; i.c.v. 10 μg, p<0.05 at time 20 min): significantly delayed | diuretic response ([3]; i.c.v. 1, 10 or 30 μg): profound diuretic response | heart rate, mean arterial pressure and urinary sodium excretion ([3]; i.c.v. 1, 10 or 30 μg, versus group control): significant (p<0.05) decreases | duration of bradycardia ([3]; i.c.v., all doses): approximately 30 minutes | duration of hypotensive response ([3]; i.c.v., all doses): ~40 min | onset of bradycardia and hypotensive response ([3]; i.c.v., all doses (1, 10, 30 μg)): 1 to 3 min | minimum effective i.c.v. dose to evoke a change in urine flow rate and urinary sodium excretion ([3]; i.c.v., preliminary studies): 1 µg | Cardiac Output [4, 7]: 111.3 ± 49.6 mL/min | Systemic Arterial Pressure [4, 7]: 150.0 +/- 15.5 mmHg | Systemic Vascular Resistance [4, 7]: 1.1 +/- 0.1 mmHg/ml/min | Cardiac Output [4, 8]: 102.8 ± 4.5 mL/min | Systemic Arterial Pressure [4, 8]: 141.0 +/- 17.8 mmHg | Systemic Vascular Resistance [4, 8]: 1.1 +/- 0.2 mmHg/ml/min | Cardiac Output [4, 9]: 96.8 ± 34.4 mL/min | Systemic Arterial Pressure [4, 9]: 109.6 +/- 19.8 mmHg | Systemic Vascular Resistance [4, 9]: 0.8 +/- 0.1 mmHg/ml/min | systemic vasodepressor response after L-NAME or L-NIO ([4]; 45 min after L-NAME or L-NIO): significantly inhibited | Cardiac Output ([4]; bolus i.v. doses): did not significantly alter cardiac output | systemic vasodepressor response after glybenclamide and meclofenamate ([4]; bolus i.v. injections, anesthetized rats): not inhibited | Systemic Arterial Pressure ([4]; bolus i.v. injections, pentobarbital-anesthetized rats): decreased systemic arterial pressure in a dose-dependant manner | behavioral or sedative effects [5]: did not produce any behavioral or sedative effects | duration of renal responses [5]: approximately 70 min | heart rate [5]: did not alter heart rate | time of peak changes in renal responses after start of infusion [5]: approximately 40 min | urinary sodium excretion ([5]; conscious rats): decrease | urine flow rate ([5]; conscious rats): profound increase | mean arterial pressure ([5]; sustained throughout infusion): slight, but statistically significant decrease | left or right ureteral flow rate (rat kidney): did not increase | aortic vasorelaxant response in the presence of inhibitors of nitric oxide formation and function ([6]; endothelial cell removal, methylene blue, L-NAME, L-NIO): blocked | vasorelaxant response after cycloxygenase blockade ([6]; meclofenamate): lack of an inhibitory effect | doses producing increases in urine flow rate, lower than in preliminary studies / Kapusta et al. (17) (conscious rats; i.v. infusion): approximately 120 fold | baseline systemic arterial pressure and heart rate (conscious rats; [10]): did not alter baseline systemic arterial pressure and heart rate | duration of renal responses (conscious rats; [10]): approximately 90 min | excretion of urinary sodium (UNA V) (conscious rats; [10]): decrease | time of peak renal effect after start of infusion (conscious rats; [10]): 30 min | urine flow rate (V) (conscious rats; i.v. infusion 50 and 166 nanog/Kg/min, conscious rats): dose-dependent increase

Source: patent US5840696A (priority 1997, dated 1998)
